The text below walks through data of patent US9777020B2, “Furo-3-carboxamide derivatives and methods of use” (AbbVie Inc., priority 2014, dated 2017).

For the assay, the target named is TrkA (Homo sapiens (Human), UniProt P04629). As to the kind of experiment: TrkA kinase HTRF enzyme inhibition assay. It is filed as biochemical. Conditions: TrkA pre-incubated with 200 μM ATP. The protocol: TrkA enzyme was obtained from Invitrogen (as catalog numbers PV3144, PV3616, and PV3617, respectively). Enzyme activity was measured in an HTRF® (homogeneous time resolved fluorescence) assay, which detects enzymatic phosphorylation of a biotinylated synthetic peptide substrate (an LCK peptide analog, biotin-ahx-[…], from Genemed Synthesis). Phosphorylation is assessed by HTRF® in the presence of an anti-phosphotyrosine antibody conjugated to Eu^3+ cryptate (Cisbio) as donor fluorophore, and streptavidin conjugated to allophycocyanin (ProZyme) as acceptor fluorophore. The HTRF® signal was detected at two different wavelengths (620 nm and 665 nm) which were used to calculate the fluorescence ratio.
TrkA, sequence (P04629 33-796): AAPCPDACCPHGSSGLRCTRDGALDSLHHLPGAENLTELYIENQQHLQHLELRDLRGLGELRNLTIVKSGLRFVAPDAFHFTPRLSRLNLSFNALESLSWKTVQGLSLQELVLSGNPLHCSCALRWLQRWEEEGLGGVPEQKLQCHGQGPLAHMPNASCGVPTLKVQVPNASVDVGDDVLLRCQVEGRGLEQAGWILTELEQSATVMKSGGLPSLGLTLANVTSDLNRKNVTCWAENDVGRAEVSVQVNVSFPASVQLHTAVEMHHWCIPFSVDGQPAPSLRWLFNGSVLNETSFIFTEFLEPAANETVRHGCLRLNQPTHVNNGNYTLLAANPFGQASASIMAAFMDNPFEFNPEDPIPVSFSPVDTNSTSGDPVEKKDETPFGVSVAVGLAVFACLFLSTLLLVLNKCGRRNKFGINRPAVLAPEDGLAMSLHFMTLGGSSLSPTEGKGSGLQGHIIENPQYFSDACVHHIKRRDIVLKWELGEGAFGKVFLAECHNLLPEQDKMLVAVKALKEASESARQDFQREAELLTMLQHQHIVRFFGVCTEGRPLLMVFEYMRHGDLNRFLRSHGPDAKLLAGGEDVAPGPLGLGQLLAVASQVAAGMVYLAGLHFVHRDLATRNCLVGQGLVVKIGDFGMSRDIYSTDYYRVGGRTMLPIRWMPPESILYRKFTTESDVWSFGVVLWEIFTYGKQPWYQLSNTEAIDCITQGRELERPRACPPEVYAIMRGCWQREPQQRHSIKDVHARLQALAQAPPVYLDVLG
TrkA enzyme was titrated to a concentration optimized to ensure accurate measurement of the initial reaction rate. To allow the TrkA enzyme to undergo activation and auto-phosphorylation, a 20 minute pre-incubation with ATP was carried out (at twice the final targeted enzyme and ATP concentration) prior to addition of test compound and the peptide substrate.
TrkA in vitro assays were performed by pre-incubating TrkA (2-10 nM) with ATP (200 μM) for 20 minutes at ambient temperature in 50 mM HEPES pH 7.4, 10 mM MgCl2, 2 mM MnCl2, 100 μM Na3VO4, 1 mM dithiothreitol, 0.01% BSA (bovine serum albumin). Then, to the activated Trk enzyme mixture was added the test compound in 2% dimethyl sulfoxide. After 10 minutes, the peptide substrate (125 nM) was added. After 1 hour, enzyme reactions were terminated by addition of equal reaction volumes of detection/stop reagent (containing 0.2 μg/mL anti-phosphotyrosine monoclonal antibody labeled with europium from Cisbio (catalog#PT66-K), and 4 μg/mL PhycoLink® Streptavidin-Allophycocyanin conjugate from ProZyme (catalog#PJ25S) in 60 mM EDTA in 40 mM HEPES pH 7.4, 480 mM KF, 0.01% Tween® 20 and 0.1% BSA bovine serum albumin) Reaction plates were stored at 4° C. overnight before reading the fluorescence ratio signal on a PerkinElmer EnVision™ fluorescence detector. Individual reaction wells were stopped at time points to obtain reaction rates. The test inhibitor compounds were assayed in duplicate, at half-log serial dilutions over a range of concentrations (e.g. starting at 50 μM or 5 μM as the high compound concentration). The percent Trk enzyme inhibition was calculated from the initial rates of the inhibited reactions relative to the uninhibited control. IC50 values were calculated by fitting the inhibition percent to the concentration of inhibitor [I] in the assay in equation 1 below, to solve for the IC50. Inhibition %=100[I]/([I]+[IC50]) equation 1
(Time-resolved FRET reads energy transfer from a long-lived donor to a nearby acceptor.)
For `CCOc1nc(N2CCN(C(C)=O)CC2)ccc1NC(=O)c1coc2c1C(=O)N([C@H](C)CO)CC2` [Example 99, N-[6-(4-acetylpiperazin-1-yl)-2-ethoxypyridin-3-yl]-5-[(2R)-1-hydroxypropan-2-yl]-4-oxo-4,5,6,7-tetrahydrofuro[3,2-c]pyridine-3-carboxamide], the midpoint of inhibition, the IC50, lay at 3.3 nM.

On to `CC(C)Oc1nc(N2CC[C@H](N(C)C)C2)ccc1NC(=O)c1coc2c1C(=O)NC(C)(C)C2` [Example 136, N-{6-[(3S)-3-(dimethylamino)pyrrolidin-1-yl]-2-isopropoxypyridin-3-yl}-6,6-dimethyl-4-oxo-4,5,6,7-tetrahydrofuro[3,2-c]pyridine-3-carboxamide], for which 10.2 nM corresponded to half-maximal inhibition (IC50).

Consider `O=C(Nc1ccc2c(cnn2CCO)c1)c1coc2c1C(=O)NCC2` [Example 53, N-[1-(2-hydroxyethyl)-1H-indazol-5-yl]-4-oxo-4,5,6,7-tetrahydrofuro[3,2-c]pyridine-3-carboxamide], for which the IC50 (as a rule, the concentration at which inhibition is half-maximal) came to 67.5 nM.

`COC(=O)c1ccc(Oc2nc(N3CCN(C)CC3)ccc2NC(=O)c2coc3c2C(=O)NCCC3)cc1` [Example 82, methyl 4-{[6-(4-methylpiperazin-1-yl)-3-{[(4-oxo-5,6,7,8-tetrahydro-4H-furo[3,2-c]azepin-3-yl)carbonyl]amino}pyridin-2-yl]oxy}benzoate] gave an IC50 of 682 nM.

Consider `CCOc1nc(C2CCN(C(C)=O)CC2)ccc1NC(=O)c1coc2c1C(=O)NC(C)(C)C2` [Example 184, N-[6-(1-acetylpiperidin-4-yl)-2-ethoxypyridin-3-yl]-6,6-dimethyl-4-oxo-4,5,6,7-tetrahydrofuro[3,2-c]pyridine-3-carboxamide], for which the IC50 was 3.5 nM.

Turning to `CC(=O)N1CCN(c2ccc(NC(=O)c3coc4c3C(=O)NCC4)c(O[C@H]3CCOC3)n2)CC1` [Example 105, N-{6-(4-acetylpiperazin-1-yl)-2-[(3S)-tetrahydrofuran-3-yloxy]pyridin-3-yl}-4-oxo-4,5,6,7-tetrahydrofuro[3,2-c]pyridine-3-carboxamide], inhibition was half-maximal at 23.5 nM (IC50).

As for `CC(=O)N1CCN(c2ccc(NC(=O)c3coc4c3C(=O)N(CCOCc3ccccc3)CC4)c(OCCOCc3ccccc3)n2)CC1` [Example 86, N-{6-(4-acetylpiperazin-1-yl)-2-[2-(benzyloxy)ethoxy]pyridin-3-yl}-5-[2-(benzyloxy)ethyl]-4-oxo-4,5,6,7-tetrahydrofuro[3,2-c]pyridine-3-carboxamide], the IC50 came out at 1320 nM.

As to `CCOc1nc(CC(=O)OC)ccc1NC(=O)c1coc2c1C(=O)NCC2` [Example 108, methyl(6-ethoxy-5-{[(4-oxo-4,5,6,7-tetrahydrofuro[3,2-c]pyridin-3-yl)carbonyl]amino}pyridin-2-yl)acetate], the IC50 was 226 nM.

`CCOc1nc(N2CCN(C(C)=O)CC2)ccc1NC(=O)c1coc2c1C(=O)N(CCOC)C(C)(C)C2` [Example 175, N-[6-(4-acetylpiperazin-1-yl)-2-ethoxypyridin-3-yl]-5-(2-methoxyethyl)-6,6-dimethyl-4-oxo-4,5,6,7-tetrahydrofuro[3,2-c]pyridine-3-carboxamide] returned an IC50 of 4.7 nM.

`COCC1(C)CC(=O)c2c(C(=O)Nc3ccc(N4CCNCC4)cc3OC)coc2C1` (stereo not drawn) [Example 166, 6-(methoxymethyl)-N-[2-methoxy-4-(piperazin-1-yl)phenyl]-6-methyl-4-oxo-4,5,6,7-tetrahydro-1-benzofuran-3-carboxamide]: the IC50 was 104 nM.

Compound `CCOc1nc(N2CCN(C(C)=O)CC2)ccc1NC(=O)c1coc2c1C(=O)N(CCO)C(C)(C)C2` [Example 174, N-[6-(4-acetylpiperazin-1-yl)-2-ethoxypyridin-3-yl]-5-(2-hydroxyethyl)-6,6-dimethyl-4-oxo-4,5,6,7-tetrahydrofuro[3,2-c]pyridine-3-carboxamide] displayed an IC50 of 5.2 nM.

On to `COc1cc(N2CCN(C(C)=O)CC2)ccc1NC(=O)c1coc2c1C(=O)C1(COC1)OC2` [Example 172, N-[4-(4-acetylpiperazin-1-yl)-2-methoxyphenyl]-4-oxo-4,7-dihydrospiro[furo[2,3-c]pyran-5,3′-oxetane]-3-carboxamide], for which the midpoint of inhibition, the IC50, lay at 60 nM.

`COc1nc(N2CCN(C(C)=O)CC2)ccc1NC(=O)c1coc2c1C(=O)C(C)(C)OC2` [Example 171, N-[6-(4-acetylpiperazin-1-yl)-2-methoxypyridin-3-yl]-5,5-dimethyl-4-oxo-4,7-dihydro-5H-furo[2,3-c]pyran-3-carboxamide]: inhibition was half-maximal at 2.9 nM (IC50).

Compound `COc1cc(N2CCN(C(=O)OC(C)(C)C)CC2)ccc1NC(=O)c1coc2c1C(=O)CC(C)(CO)C2` (stereo not drawn) [Example 165, tert-butyl 4-[4-({[6-(hydroxymethyl)-6-methyl-4-oxo-4,5,6,7-tetrahydro-1-benzofuran-3-yl]carbonyl}amino)-3-methoxyphenyl]piperazine-1-carboxylate] registered an IC50 of 13.3 nM.

On to `CC(C)Oc1nc(N(CCO)CCO)ccc1NC(=O)c1coc2c1C(=O)NC(C)(C)C2` [Example 140, N-{6-[bis(2-hydroxyethyl)amino]-2-isopropoxypyridin-3-yl}-6,6-dimethyl-4-oxo-4,5,6,7-tetrahydrofuro[3,2-c]pyridine-3-carboxamide], for which the IC50 is 10.5 nM.

As to `CCOc1nc(N2CCN(C(C)=O)CC2)ccc1NC(=O)c1coc2c1C(=O)NC1(COC1)C2` [Example 114, N-[6-(4-acetylpiperazin-1-yl)-2-ethoxypyridin-3-yl]-4-oxo-4,7-dihydro-5H-spiro[furo[3,2-c]pyridine-6,3′-oxetane]-3-carboxamide], the IC50 stood at 7.2 nM.

Compound `CCOc1nc(N2CCN(C(C)=O)CC2)ccc1NC(=O)c1coc2c1C(=O)N(C(C)(C)CO)CC2` [Example 102, N-[6-(4-acetylpiperazin-1-yl)-2-ethoxypyridin-3-yl]-5-(1-hydroxy-2-methylpropan-2-yl)-4-oxo-4,5,6,7-tetrahydrofuro[3,2-c]pyridine-3-carboxamide] showed an IC50 of 12.7 nM.

`CN1CCc2occ(C(=O)Nc3ccc(C(F)(F)F)cn3)c2C1=O` [Example 76, 5-methyl-4-oxo-N-[5-(trifluoromethyl)pyridin-2-yl]-4,5,6,7-tetrahydrofuro[3,2-c]pyridine-3-carboxamide] displayed an IC50 of 1530 nM.

`CCOc1nc(N2CCN(C(=O)OC(C)(C)C)CC2)ccc1NC(=O)c1coc2c1C(=O)NCC2` [Example 92, tert-butyl 4-(6-ethoxy-5-{[(4-oxo-4,5,6,7-tetrahydrofuro[3,2-c]pyridin-3-yl)carbonyl]amino}pyridin-2-yl)piperazine-1-carboxylate] gave an IC50 of 18.2 nM.

`CCOc1nc(N2CCN(C(C)=O)CC2)ccc1NC(=O)c1coc2c1C(=O)N([C@H](C)COC(C)=O)CC2` [Example 98, (2R)-2-[3-{[6-(4-acetylpiperazin-1-yl)-2-ethoxypyridin-3-yl]carbamoyl}-4-oxo-6,7-dihydrofuro[3,2-c]pyridin-5(4H)-yl]propyl acetate] returned an IC50 of 1.5 nM.

For `COc1nc(N2CCN(C(C)=O)CC2)ccc1NC(=O)c1coc2c1C(=O)NC(C)(C)C2` [Example 122, N-[6-(4-acetylpiperazin-1-yl)-2-methoxypyridin-3-yl]-6,6-dimethyl-4-oxo-4,5,6,7-tetrahydrofuro[3,2-c]pyridine-3-carboxamide], the IC50 turned out to be 14.1 nM.
